Drawing on patent publication US10144732B2 (BIOGEN MA INC., priority 2014, dated 2018), this text covers IC50 for 26 molecules.

“And” between values parts separate entries of the source, which are not always exact repeats. Equal values may be shown once.

The target in this test is T1, Human ATX protein (Homo sapiens, UniProt Q13822).
T1 construct: made in house
The test is described as follows: ATX biochemical assay (FRET, FS-3 substrate). The settings on record: FRET assay, FS-3 2 μM, ATX 1.0 μg/mL, 30 minutes preincubation, 2 hours reaction at room temperature; read-out: IC50. The gist of the method:
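FRET read-out: cleavage of FS-3 (2 μM final) unquenches fluorescein, measured at 485/538 nm after 2 h at room temperature. Before substrate addition, in-house-expressed human autotaxin (1.0 μg/mL) sat with compound for 30 min in pH 7.4 Tris/NaCl/KCl/CaCl2/MgCl2 buffer containing fatty acid free-BSA at 1 mg/mL.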
The term IC50 denotes the concentration that gives 50% inhibition. For the molecule `O=C(NC12CCC(C(=O)O)(CC1)CC2)N1CCc2c(C(F)(F)F)nn(Cc3ccc(Cl)cc3F)c2C1` [Example 5-8, 4-(1-(4-Chloro-2-fluorobenzyl)-3-(trifluoromethyl)-4,5,6,7-tetrahydro-1H-pyrazolo[3,4-c]pyridine-6-carboxamido)bicyclo[2.2.2]octane-I-carboxylic acid], the IC50 is ≤ 100 nM.
Consider `CN(C(=O)N1CCc2c(C(F)(F)F)nn(Cc3ccc(Cl)cc3F)c2C1)[C@H]1CC[C@@H](C(=O)O)CC1` [Example 5-9, cis-4-(1-(4-Chloro-2-fluorobenzyl)-N-methyl-3-(trifluoromethyl)-4,5,6,7-tetrahydro-1H-pyrazolo[3,4-c]pyridine-6-carboxamido)cyclohexanecarboxylic acid], for which the IC50 was ≤ 100 nM.
Regarding `CN(C(=O)N1CCc2c(C(F)(F)F)nn(Cc3ccc(Cl)cc3F)c2C1)[C@H]1CC[C@H](C(=O)O)CC1` [Example 5-10, trans-4-(1-(4-Chloro-2-fluorobenzyl)-N-methyl-3-(trifluoromethyl)-4,5,6,7-tetrahydro-1H-pyrazolo[3,4-c]pyridine-6-carboxamido)cyclohexanecarboxylic acid], the IC50 is ≤ 100 nM.
As for `O=C(O)C12CCC(C(=O)N3CCc4c(C(F)(F)F)nn(Cc5ccc(F)cc5)c4C3)(CC1)CC2` [Example 5-11, 4-(1-(4-Fluorobenzyl)-3-(trifluoromethyl)-4,5,6,7-tetrahydro-1H-pyrazolo[3,4-c]pyridine-6-carbonyl)bicyclo[2.2.2]octane-1-carboxylic acid], the figure is ≤ 100 nM; as for `O=C(CC12CCC(C(=O)O)(CC1)CC2)N1CCc2c(C(F)(F)F)nn(Cc3ccc(Cl)cc3F)c2C1` [Example 5-12, 4-(2-(1-(4-Chloro-2-fluorobenzyl)-3-(trifluoromethyl)-4,5-dihydro-1H-pyrazolo[3,4-c]pyridin-6(7H)-yl)-2-oxoethyl)bicyclo[2.2.2]octane-1-carboxylic acid], ≤ 100 nM.
With `O=C(CC12CCC(C(=O)O)(CC1)CC2)N1CCc2c(C(F)(F)F)nn(Cc3ccc(F)cc3)c2C1` [Example 5-13, 4-(2-(1-(4-Fluorobenzyl)-3-(trifluoromethyl)-4,5-dihydro-1H-pyrazolo[3,4-c]pyridin-6(7H)-yl)-2-oxoethyl)bicyclo[2.2.2]octane-1-carboxylic acid] the figure was ≤ 100 nM; with `Cc1ccc(Cn2nc(C(F)(F)F)c3c2CN(C(=O)C[C@H]2CC[C@H](C(=O)O)CC2)CC3)cc1` [Example 5-14, trans-4-(2-(1-(4-Methylbenzyl)-3-(trifluoromethyl)-4,5-dihydro-1H-pyrazolo[3,4-c]pyridin-6(7H)-yl)-2-oxoethyl)cyclohexanecarboxylic acid], ≤ 100 nM; with `COc1ccc(Cn2nc(C(F)(F)F)c3c2CN(C(=O)C[C@H]2CC[C@H](C(=O)O)CC2)CC3)cc1` [Example 5-15, trans-4-(2-(1-(4-Methoxylbenzyl)-3-(trifluoromethyl)-4,5-dihydro-1H-pyrazolo[3,4-c]pyridin-6(7H)-yl)-2-oxoethyl)cyclohexanecarboxylic acid], ≤ 100 nM.
With `O=C(C[C@H]1CC[C@H](C(=O)O)CC1)N1CCc2c(C(F)(F)F)nn(CCc3ccccc3)c2C1` [Example 5-16, trans-4-(2-Oxo-2-(1-phenethyl-3-(trifluoromethyl)-4,5-dihydro-1H-pyrazolo[3,4-c]pyridin-6(7H)-yl)ethyl)cyclohexanecarboxylic acid] the figure was 100 to 250 nM.
Turning to `O=C(C[C@H]1CC[C@H](C(=O)O)CC1)N1CCc2c(C(F)(F)F)nn(Cc3ccc(Cl)s3)c2C1` [Example 5-17, trans-4-(2-(1-((5-chlorothiophen-2-yl)methyl)-3-(trifluoromethyl)-4,5-dihydro-1H-pyrazolo[3,4-c]pyridin-6(7H)-yl)-2-oxoethyl)cyclohexanecarboxylic acid], the IC50 is ≤ 100 nM.
With `CC(C)(C)OC(=O)N1CC(CC(=O)N2CCc3c(C(F)(F)F)nn(Cc4ccc(Cl)cc4F)c3C2)C[C@H]1C(=O)O` (stereo partly drawn) [Example 5-18, (2S)-1-(tert-Butoxycarbonyl)-4-(2-(1-(4-chloro-2-fluorobenzyl)-3-(trifluoromethyl)-4,5-dihydro-1H-pyrazolo[3,4-c]pyridin-6(7H)-yl)-2-oxoethyl)pyrrolidine-2-carboxylic acid], the IC50 was ≤ 100 nM.
For `CC(c1ccc(F)cc1)n1nc(C(F)(F)F)c2c1CN(C(=O)C[C@H]1CC[C@H](C(=O)O)CC1)CC2` (stereo partly drawn) [Example 5-19, trans-4-(2-(1-(1-(4-Fluorophenyl)ethyl)-3-(trifluoromethyl)-4,5-dihydro-1H-pyrazolo[3,4-c]pyridin-6(7H)-yl)-2-oxoethyl)cyclohexanecarboxylic acid], the IC50 is ≤ 100 nM.
Take `CC(c1ccc(F)cc1)n1nc(C(F)(F)F)c2c1CN(C(=O)C[C@H]1CC[C@@H](C(=O)O)CC1)CC2` (stereo partly drawn) [Example 5-20, cis-4-(2-(1-(1-(4-Fluorophenyl)ethyl)-3-(trifluoromethyl)-4,5-dihydro-1H-pyrazolo[3,4-c]pyridin-6(7H)-yl)-2-oxoethyl)cyclohexanecarboxylic acid]: the IC50 is ≤ 100 nM.
Turning to `O=C(C[C@H]1CC[C@H](C(=O)O)CC1)N1CCc2c(C(F)(F)F)nn(Cc3cccnc3)c2C1` [Example 5-22, trans-4-(2-Oxo-2-(1-(pyridin-3-ylmethyl)-3-(trifluoromethyl)-4,5-dihydro-1H-pyrazolo[3,4-c]pyridin-6(7H)-yl)ethyl)cyclohexanecarboxylic acid], the IC50 is ≤ 100 nM.
Consider `O=C(C[C@H]1CC[C@H](C(=O)O)CC1)N1CCc2c(C(F)(F)F)nn(Cc3ccccn3)c2C1` [Example 5-23, trans-4-(2-Oxo-2-(1-(pyridin-2-ylmethyl)-3-(trifluoromethyl)-4,5-dihydro-1H-pyrazolo[3,4-c]pyridin-6(7H)-yl)ethyl)cyclohexanecarboxylic acid], for which the IC50 lay in the range of 100 to 250 nM.
Regarding `O=C(C[C@H]1CC[C@H](C(=O)O)CC1)N1CCc2c(C(F)(F)F)nn(Cc3ccncc3)c2C1` [Example 5-24, trans-4-(2-Oxo-2-(1-(pyridin-4-ylmethyl)-3-(trifluoromethyl)-4,5-dihydro-1H-pyrazolo[3,4-c]pyridin-6(7H)-yl)ethyl)cyclohexanecarboxylic acid], the 50% inhibitory concentration (IC50) is ≤ 100 nM.
For `O=C(C[C@H]1CC[C@@H](C(=O)O)CC1)N1CCc2c(C(F)(F)F)nn(Cc3ccc(Cl)s3)c2C1` [Example 5-25, cis-4-(2-(1-((5-Chlorothiophen-2-yl)methyl)-3-(trifluoromethyl)-4,5-dihydro-1H-pyrazolo[3,4-c]pyridin-6(7H)-yl)-2-oxoethyl)cyclohexanecarboxylic acid], the IC50 is ≤ 100 nM.
As for `O=C(C[C@H]1CC[C@H](C(=O)O)CC1)N1CCc2c(C(F)(F)F)nn(Cc3cccs3)c2C1` [Example 5-26, trans-4-(2-Oxo-2-(1-(thiophen-2-ylmethyl)-3-(trifluoromethyl)-4,5-dihydro-1H-pyrazolo[3,4-c]pyridin-6(7H)-yl)ethyl)cyclohexanecarboxylic acid], the IC50 is ≤ 100 nM.
Regarding `O=C(C[C@H]1CC[C@H](C(=O)O)CC1)N1CCc2c(C(F)(F)F)nn(Cc3ccsc3)c2C1` [Example 5-27, trans-4-(2-Oxo-2-(1-(thiophen-3-ylmethyl)-3-(trifluoromethyl)-4,5-dihydro-1H-pyrazolo[3,4-c]pyridin-6(7H)-yl)ethyl)cyclohexanecarboxylic acid], the IC50 was ≤ 100 nM.
With `O=C(C[C@H]1CC[C@H](C(=O)O)CC1)N1CCc2c(C(F)(F)F)nn(Cc3cncs3)c2C1` [Example 5-28, trans-4-(2-Oxo-2-(1-(thiazol-5-ylmethyl)-3-(trifluoromethyl)-4,5-dihydro-1H-pyrazolo[3,4-c]pyridin-6(7H)-yl)ethyl)cyclohexanecarboxylic acid] the figure was ≤ 100 nM.
As for `O=C(C[C@H]1CC[C@H](C(=O)O)CC1)N1CCc2c(C(F)(F)F)nn(Cc3cncnc3)c2C1` [Example 5-29, trans-4-(2-Oxo-2-(1-(pyrimidin-5-ylmethyl)-3-(trifluoromethyl)-4,5-dihydro-1H-pyrazolo[3,4-c]pyridin-6(7H)-yl)ethyl)cyclohexanecarboxylic acid], the figure is > 500 nM and ≤ 10000 nM; as for `O=C(C[C@H]1CC[C@H](C(=O)O)CC1)N1CCc2c(C(F)(F)F)nn(Cc3ccc(F)cc3F)c2C1` [Example 5-30, trans-4-(2-(1-(2,4-Difluorobenzyl)-3-(trifluoromethyl)-4,5-dihydro-1H-pyrazolo[3,4-c]pyridin-6(7H)-yl)-2-oxoethyl)cyclohexanecarboxylic acid], ≤ 100 nM; as for `O=C(C[C@H]1CC[C@H](C(=O)O)CC1)N1CCc2c(C(F)(F)F)nn(Cc3ccc(F)c(F)c3)c2C1` [Example 5-31, trans-4-(2-(1-(3,4-Difluorobenzyl)-3-(trifluoromethyl)-4,5-dihydro-1H-pyrazolo[3,4-c]pyridin-6(7H)-yl)-2-oxoethyl)cyclohexanecarboxylic acid], ≤ 100 nM.
On to `O=C(C[C@H]1CC[C@H](C(=O)O)CC1)N1CCc2c(C(F)(F)F)nn(Cc3cc(F)c(F)cc3F)c2C1` [Example 5-32, trans-4-(2-(1-(2,4,5-Trifluorobenzyl)-3-(trifluoromethyl)-4,5-dihydro-1H-pyrazolo[3,4-c]pyridin-6(7H)-yl)-2-oxoethyl)cyclohexanecarboxylic acid], for which the IC50 was ≤ 100 nM.
With `O=C(C[C@H]1CC[C@H](C(=O)O)CC1)N1CCc2c(C(F)(F)F)nn(Cc3cc(F)c(F)c(F)c3)c2C1` [Example 5-33, trans-4-(2-(1-(3,4,5-Trifluorobenzyl)-3-(trifluoromethyl)-4,5-dihydro-1H-pyrazolo[3,4-c]pyridin-6(7H)-yl)-2-oxoethyl)cyclohexanecarboxylic acid] the figure was ≤ 100 nM; with `O=C(C[C@H]1CC[C@@H](C(=O)O)CC1)N1CCc2c(C(F)(F)F)nn(Cc3ccc(F)cc3F)c2C1` [Example 5-34, cis-4-(2-(1-(2,4-Difluorobenzyl)-3-(trifluoromethyl)-4,5-dihydro-1H-pyrazolo[3,4-c]pyridin-6(7H)-yl)-2-oxoethyl)cyclohexanecarboxylic acid], ≤ 100 nM.
